# Target: HiBit-KRAS^G12C (Homo sapiens, UniProt P01116, G12C)
# Assay: HiBit degradation assay in SW1573 HiBit-KRas^G12C cells
# Type: cell-based
# Set-up: expressed in transfected cells; host or cells: SW1573 (clone E6), modified pcDNA3.1 vector, TK promoter
# Details: SW1573 HiBit-KRas^G12C, 0.1% DMSO, 24 hours; read-out: KRas^G12C-HIBit (SW1573; 0.1% DMSO) DC50*
# Method: Reagents. SW1573 (CRL-2170) and MiaPaCa-2 (CRL-1420) cells were purchased from ATCC. Both cell lines are […] for the G12C mutation in KRAS. SW1573 cells were cultured in DMEM+F12+Glutamax (+Sodium Bicarbonate, +sodium pyruvate, Thermofisher scientific, #10565) supplemented with 10% FBS (Thermofisher scientific, #2060357) and 1% Antibiotic-Antimycotic (Thermofisher scientific, #15240096). MiaPaCa-2 cells were cultured in DMEM+Glutamax media (Thermofisher scientific, #10566) supplemented with 10% FBS (Thermofisher scientific, #2060357) and 1% Antibiotic-Antimycotic (Thermofisher scientific, #15240096). For degradation assays, 384 well plates were purchased from Corning (Corning® CellBIND® 384-well Flat Clear Bottom Black Polystyrene Microplates, Low Flange, #3770). Gambogic acid was purchased from Selleckchem (#S2448). Alamar blue was purchased from Thermofisher scientific (A50101) and used according to manufacturer instructions. The Nano-Glo® HiBit Lytic Detection System and Nano-Glo® HiBit Blotting System were purchased from Promega (#N3050 and #N2410) and used according to manufacturer instructions.
# To create the SW1573 HiBit-KRAS^G12C cell line, the nucleotide sequence encoding the 11 amino acid HiBit tag from Promega (Schwinn, M. K. et al. (2018) CRISPR-mediated tagging of endogenous proteins with a luminescent peptide. ACS Chem. Biol. 13(2), 467-474) was appended to the N-terminus of the KRAS^G12C coding sequence. This synthesized DNA was cloned into a modified pcDNA3.1 vector under the control of the thymidine kinase (TK) promoter. This HiBit-KRAS^G12C expressing plasmid was transfected into parental SW1573 cells and colonies were selected using 400 μg/mL zeocin. The resulting clonal lines were screened for expression of HiBit-KRAS^G12C protein using Nano-Glo® HiBit Blotting System. A luminescent band of the correct size for HiBit-KRAS^G12C was detected in several clones. Clone E6 was selected for further studies.
# Either SW1573 HiBit-KRas^G12C or MiaPaCa-2 HiBit-KRas^G12C cells were plated at 9000 cells/well in a 384 well plate (Corning #3770). Exemplary heterobifunctional molecules and positive controls were diluted in the appropriate cell media and applied to the plated cells resulting in a final concentration titration of 10 μM to 20 nM in either 0.1% or 0.5% dimethyl sulfoxide (DMSO). Gambogic acid was used as a positive control for cytotoxicity and titrated from 10 μM to 78 nM. All assays were performed in triplicate. Cells were treated with compounds for 24 hours at 37° C. in an incubator containing 5% CO2. Following treatment, alamar blue was used to determine if any compounds led to a loss in cell viability after 24 hours. The 10× alamar blue reagent was added to a final concentration of 1× as recommended by the manufacturer and cells were returned to the incubator for 4 hours. Plates were then allowed to equilibrate to room temperature and fluorescence was measured using a Perkin-Elmer EnVision. After completion of the fluorescence read, the liquid from each well was removed and the cells were washed with PBS. The Nano-Glo® HiBiT detection reagent was prepared according to the manufacturer's instructions and added to each well after the PBS wash was removed. Following incubation at room temperature for 45 minutes, the luminescence was read using the ultra-sensitive luminescence aperture on the Envision instrument.
# Fluorescence values from the alamar blue treatment were normalized to the DMSO only control for each compound titration. We hypothesized that compounds that led to a ≥50% loss in cell viability of the KRAS-independent SW1573 HiBit-KRas^G12C cells were likely generally cytotoxic and loss of HiBit-KRAS^G12C signal from these compounds may be due to lower cell number and not specific KRAS^G12C degradation. These points were therefore excluded from the data analysis for degradation. […]
# Sequence of HiBit-KRAS^G12C (P01116 1-186 isoform P01116-2 G12C limits assumed): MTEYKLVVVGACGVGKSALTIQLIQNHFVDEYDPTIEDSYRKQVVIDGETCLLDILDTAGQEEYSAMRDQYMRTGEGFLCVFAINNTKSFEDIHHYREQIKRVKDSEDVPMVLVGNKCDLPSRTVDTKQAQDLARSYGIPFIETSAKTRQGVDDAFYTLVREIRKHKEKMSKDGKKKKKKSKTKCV
row,SMILES,DC50
1,"C=CC(=O)N1CCN(c2nc(OCCN3CCC(COCC(=O)N[C@H](C(=O)N4C[C@H](O)C[C@H]4C(=O)N[C@@H](C)c4ccc(-c5scnc5C)cc4)C(C)(C)C)CC3)nc3c(F)c(-c4cc(O)cc5ccccc45)c(Cl)cc23)CC1 (atropisomer, axis not shown) [Compound 10, (2S,4R)-1-[(2S)-2-(2-{[1-(2-{[6-chloro-8-fluoro-7-(3-hydroxynaphthalen-1-yl)-4-[4-(prop-2-enoyl)piperazin-1-yl]quinazolin-2-yl]oxy}ethyl)piperidin-4-yl]methoxy}acetamido)-3,3-dimethylbutanoyl]-4-hydroxy-N-[(1S)-1-[4-(4-methyl-1,3-thiazol-5-yl)phenyl]ethyl]pyrrolidine-2-carboxamide]",> 1000 nM
2,"C=CC(=O)N1CCN(c2nc(O[C@H](C)CN3CCC(OCCOCC(=O)N[C@H](C(=O)N4C[C@H](O)C[C@H]4C(=O)N[C@@H](C)c4ccc(-c5scnc5C)cc4)C(C)(C)C)CC3)nc3c(F)c(-c4cc(O)cc5ccccc45)c(Cl)cc23)CC1 (atropisomer, axis not shown) [Compound 85, (2S,4R)-1-[(2S)-2-{2-[2-({1-[(2R)-2-{[6-chloro-8-fluoro-7-(3-hydroxynaphthalen-1-yl)-4-[4-(prop-2-enoyl)piperazin-1-yl]quinazolin-2-yl]oxy}propyl]piperidin-4-yl}oxy)ethoxy]acetamido}-3,3-dimethylbutanoyl]-4-hydroxy-N-[(1S)-1-[4-(4-methyl-1,3-thiazol-5-yl)phenyl]ethyl]pyrrolidine-2-carboxamide]",> 1000 nM
3,"C=C(F)C(=O)N1CCN(c2nc(OCCN3CCC(OCCOc4cc([C@@H](C(=O)N5C[C@H](O)C[C@H]5C(=O)N[C@@H](C)c5ccc(-c6scnc6C)cc5)C(C)C)on4)CC3)nc3c(F)c(-c4cc(O)cc5ccccc45)c(Cl)cc23)C[C@@H]1CC#N [Compound 1, (2S,4R)-1-[(2S)-2-{3-[2-({1-[2-({6-chloro-4-[(3S)-3-(cyanomethyl)-4-(2-fluoroprop-2-enoyl)piperazin-1-yl]-8-fluoro-7-(3-hydroxynaphthalen-1-yl)quinazolin-2-yl}oxy)ethyl]piperidin-4-yl}oxy)ethoxy]-1,2-oxazol-5-yl}-3-methylbutanoyl]-4-hydroxy-N-[(1S)-1-[4-(4-methyl-1,3-thiazol-5-yl)phenyl]ethyl]pyrrolidine-2-carboxamide]",> 1000 nM
4,"C=CC(=O)N1CCN(c2nc(OCCN3CCC(OCCOc4cc([C@H](C(=O)N5C[C@@H](O)C[C@H]5C(=O)N[C@@H](C)c5ccc(-c6scnc6C)cc5)C(C)C)on4)CC3)nc3c(F)c(-c4cc(O)cc5ccccc45)c(Cl)cc23)C[C@@H]1CC#N [Compound 2, (2S,4S)-1-[(2R)-2-{3-[2-({1-[2-({6-chloro-4-[(3S)-3-(cyanomethyl)-4-(prop-2-enoyl)piperazin-1-yl]-8-fluoro-7-(3-hydroxynaphthalen-1-yl)quinazolin-2-yl}oxy)ethyl]piperidin-4-yl}oxy)ethoxy]-1,2-oxazol-5-yl}-3-methylbutanoyl]-4-hydroxy-N-[(1S)-1-[4-(4-methyl-1,3-thiazol-5-yl)phenyl]ethyl]pyrrolidine-2-carboxamide]",> 1000 nM
5,"C=CC(=O)N1CCN(c2nc(OCCN3CCC(COCC(=O)N[C@H](C(=O)N4C[C@@H](O)C[C@H]4C(=O)N[C@@H](C)c4ccc(-c5scnc5C)cc4)C(C)(C)C)CC3)nc3c(F)c(-c4cc(O)cc5ccccc45)c(Cl)cc23)CC1 [Compound 8, (2S,4S)-1-[(2S)-2-(2-{[1-(2-{[6-chloro-8-fluoro-7-(3-hydroxynaphthalen-1-yl)-4-[4-(prop-2-enoyl)piperazin-1-yl]quinazolin-2-yl]oxy}ethyl)piperidin-4-yl]methoxy}acetamido)-3,3-dimethylbutanoyl]-4-hydroxy-N-[(1S)-1-[4-(4-methyl-1,3-thiazol-5-yl)phenyl]ethyl]pyrrolidine-2-carboxamide]",> 1000 nM
6,"C=C(F)C(=O)N1CCN(c2nc(O[C@H](C)CN3CCC(COc4cc([C@H](C(=O)N5C[C@H](O)C[C@H]5C(=O)N[C@@H](C)c5ccc(-c6scnc6C)cc5)C(C)C)on4)CC3)nc3c(F)c(-c4cc(O)cc5ccccc45)c(Cl)cc23)CC1 [Compound 14, (2S,4R)-1-[(2R)-2-[3-({1-[(2R)-2-({6-chloro-8-fluoro-4-[4-(2-fluoroprop-2-enoyl)piperazin-1-yl]-7-(3-hydroxynaphthalen-1-yl)quinazolin-2-yl}oxy)propyl]piperidin-4-yl}methoxy)-1,2-oxazol-5-yl]-3-methylbutanoyl]-4-hydroxy-N-[(1S)-1-[4-(4-methyl-1,3-thiazol-5-yl)phenyl]ethyl]pyrrolidine-2-carboxamide]",> 1000 nM
7,"C=C(F)C(=O)N1CCN(c2nc(O[C@H](C)CN3CCC(COc4cc([C@@H](C(=O)N5C[C@H](O)C[C@H]5C(=O)N[C@@H](C)c5ccc(-c6scnc6C)cc5)C(C)C)on4)CC3)nc3c(F)c(-c4cc(O)cc5ccccc45)c(Cl)cc23)CC1 [Compound 18, (2S,4R)-1-[(2S)-2-[3-({1-[(2R)-2-({6-chloro-8-fluoro-4-[4-(2-fluoroprop-2-enoyl)piperazin-1-yl]-7-(3-hydroxynaphthalen-1-yl)quinazolin-2-yl}oxy)propyl]piperidin-4-yl}methoxy)-1,2-oxazol-5-yl]-3-methylbutanoyl]-4-hydroxy-N-[(1S)-1-[4-(4-methyl-1,3-thiazol-5-yl)phenyl]ethyl]pyrrolidine-2-carboxamide]",> 1000 nM
8,"C=CC(=O)N1CCN(c2nc(O[C@H](C)CN3CCC(COc4cc([C@H](C(=O)N5C[C@H](O)C[C@H]5C(=O)N[C@@H](C)c5ccc(-c6scnc6C)cc5)C(C)C)on4)CC3)nc3c(F)c(-c4cc(O)cc5ccccc45)c(Cl)cc23)CC1 [Compound 19, (2S,4R)-1-[(2R)-2-[3-({1-[(2R)-2-{[6-chloro-8-fluoro-7-(3-hydroxynaphthalen-1-yl)-4-[4-(prop-2-enoyl)piperazin-1-yl]quinazolin-2-yl]oxy}propyl]piperidin-4-yl}methoxy)-1,2-oxazol-5-yl]-3-methylbutanoyl]-4-hydroxy-N-[(1S)-1-[4-(4-methyl-1,3-thiazol-5-yl)phenyl]ethyl]pyrrolidine-2-carboxamide]",> 1000 nM
9,"C=CC(=O)N1CCN(c2nc(OCCN3CCC(OCCOCC(=O)N[C@H](C(=O)N4C[C@H](O)C[C@H]4C(=O)N[C@@H](C)c4ccc(-c5scnc5C)cc4)C(C)(C)C)CC3)nc3c(F)c(-c4cccc5cccc(C)c45)c(Cl)cc23)C[C@@H]1CC#N [Compound 23, (2S,4R)-1-[(2S)-2-{2-[2-({1-[2-({6-chloro-4-[(3S)-3-(cyanomethyl)-4-(prop-2-enoyl)piperazin-1-yl]-8-fluoro-7-(8-methylnaphthalen-1-yl)quinazolin-2-yl}oxy)ethyl]piperidin-4-yl}oxy)ethoxy]acetamido}-3,3-dimethylbutanoyl]-4-hydroxy-N-[(1S)-1-[4-(4-methyl-1,3-thiazol-5-yl)phenyl]ethyl]pyrrolidine-2-carboxamide]",> 1000 nM
